Data on 17 compounds can be found in patent US8859819B2, “Sulphurated derivatives of resorcinol, preparation of same and cosmetic uses thereof” (Pierre Fabre Dermo-Cosmetique, priority 2009, dated 2014).

A short description of test [1]: Antioxidant capacity by chemiluminescence (Photochem Analytik Jena). To be noted: for μg of sample for 1 μg of Trolox: Trolox equivalent, lower = stronger antioxidant. Here is the method:
This test is used to determine the antioxidant capacity of the molecules. It is a method that generates free radicals by a photochemical signal. The intensity of the oxidation is 1000 times greater than that obtained under normal conditions.
The detection is carried out by chemiluminescence. It enables the evaluation of hydrosoluble and liposoluble anti-oxidant molecules or extracts.
The results are expressed respectively in equivalent quantity of vitamin C or Trolox (6-hydroxy-2,5,7,8-tetramethylchroman-2-carboxylic acid). The sensitivity is of the order of a nanomole.
The antioxidant activity studied in this test represents the capacity to trap specifically superoxide anions by chemiluminescence.
The quantified results are expressed in Trolox equivalent (standard), i.e. in “μg of product for 1 μg of Trolox”. This signifies that a quantity×of sample is needed to obtain an activity equivalent to the activity detected for 1 μg of standard. It is an anti-oxidant power relative to a reference, which makes it possible to disregard the concentration tested.
The superoxide radical: 02^0− is generated by a photochemical reaction: L+hv (UV)+O2→L*O2→L^0++O2^0−
A part of the superoxide anions is quenched by the anti-oxidants. The remaining free radicals are quantified by chemiluminescence. L^0++O2^0−→N2+AP*^2−→AP^2−+hv (luminescence)

In another test the target is T1, mushroom tyrosinase (Agaricus bisporus, UniProt C7FF04).
T1 construct: purchased Sigma T-3824
As to the kind of experiment: Tyrosinase inhibition test (in vitro acellular depigmenting activity). It is filed as biochemical. To be noted: for Tyrosinase depigmenting activity result: class symbol, assay from 250 to 150 μM, overall tyrosinase activity (MPMOg), L-tyrosine substrate; for IC50: monophenol monooxygenase (MPMO) function, reference molecules for the test, read-out: IC 50 (MPMO). The text has this: A) Determination of the Depigmenting Activity in an in vitro Acellular Test: Tyrosinase Inhibition Test)
This test is used to evaluate the depigmenting activity of the molecules tested. Tyrosinase is a limiting enzyme in melanogenesis.
It belongs to the family of oxydoreductases. It has in particular the function: monophenol monooxygenase (MPMO) and polyphenol oxidase (PPO).
It is synthesised at the level of the melanocytes. It is activated during its migration towards melanosome […]. It transforms tyrosine into DOPA then dopaquinone, which leads in fine to a polymerisation, i.e. a production of pigments (see diagram below).
The substrate: L-tyrosine, is transformed into L-DOPA by the monophenol mono oxygenase function which is transformed by the polyphenol oxidase function from tyrosinase into dopaquinone. The latter is going to self-oxidise into dopachrome which is measured by spectrophotometry at 490 nm.
More precisely, it is the overall tyrosinase activity (MPMOg) which is measured since it is the dopachrome in fine that is assayed. Thus the products tested on MPMOg (=measurement of the activity on PPO and MPMO) can cumulate the inhibition of the 2 functions, • inhibiting uniquely the MPMO function stricto sensus (transformation of tyrosine into DOPA) as a complement to the PPO test, • could inhibit PPO uniquely. General Experimental Conditions:

A further test concerns B16-F10 cells. As to the kind of experiment: Melanin assay test in B16-F10 cells. The class given is cell-based, murine. To be noted: Mus musculus, read-out: B16 activity results -% at X μM. How it is done: B) Melanin Assay Test in B16-F10 Cells:
This involves a test of measuring the synthesis of melanin by colorimetric assay on a murine melanoma cell line: the B16-F10 line. This test makes it possible to evaluate the depigmenting power of active ingredients.
The B16-F10 cells are cultured in 96-well plates in DMEM medium supplemented with FCS (foetal calf serum), and incubated for 24 hours at 37° C., 5% CO2. The cells are then stimulated with 0.1 μM α-MSH (to stimulate the synthesis of melanin, the stimulation observed is around 150%) and treated for 72 hours with the active ingredients to be tested. Each concentration of active ingredient is tested at least in triplicate. The total melanin followed by the intracellular melanin dissolved in the lysis buffer are then assayed by absorbance reading at 405 nm. The total proteins are assayed in the lysate and the results are expressed in mg melanin/mg proteins. The percentage of activity is calculated as follows: […]
A negative value indicates an inhibition, whereas a positive value indicates an induction of the synthesis of melanin.
• B16-F10 cell line between P10 and P20 (murine melanocytes) (ATCC, CRL-6475)
Reagents: • DMEM without phenol red (GibcoBRL, 31053-028), 200 mM Glutamax-I Supplement (GibcoBRL, 35050-038), D-PBS (GibcoBRL, 14190-094), Foetal calf serum (Invitrogen, 10270-098), Trypsine-EDTA (GibcoBRL, 25300-054), NaOH (Sigma, S8045-500G), DMSO (Sigma, 471267-1L), Nle, Phe—Melanocyte Stimulating Hormone (Sigma, M-8764), Melanin (Sigma, M-0418), BCA-Copper (Sigma, B9643 and C2284), BSA (Sigma, P0914) C) Test for the Study of the Antioxidant Capacity by Chemiluminescence (Photochem Analytik Jena) Principle: […]

Test [2] in a line: Protection of linoleic acid following a UV stress (Fenton conditions, MDA-TBA assay). To be noted: for % Protection Linoleic acid under UV/Fenton: UV + H2O2 + iron II. Set-up: % Protection Linoleic acid under UV/Fenton: concentration or dose not given beside the values. The text has this: D) Test of Protection of Linoleic Acid Following a UV Stress. Target: Protection of Linoleic Acid Under Fenton Conditions, UV Irradiation Linoleic acid belongs to the family of polyunsaturated fatty acids (PUFA) (AGPI). Sensitive to oxidation, linoleic acid is a favoured target for oxygenated free radicals (OFR) in biological media. When biological membranes are exposed to an oxidative stress, the components the most affected are the phospholipids constituted of PUFA and cholesterol. Their degradation leads to lipidic peroxidation and generally to destructuring. Lipidic peroxidation is a self-catalysing process which generally involves OFR. Lipidic peroxidation is in part responsible for skin ageing. The method employed to evaluate lipid peroxidation is based on the coupling of thiobarbituric acid (TBA) and secondary degradation products leading to coloured compounds detectable by spectrofluorometry. The essential secondary compound of final degradation is malondialdehyde, MDA. MDA is a carcinogenic and mutagenic aldehyde, it acts on proteins and DNA. The sample to be tested is placed in contact with linoleic acid in a weight/weight ratio. The sample undergoes an MED (Minimal Erythemal Dose) irradiation under Fenton conditions, namely in the presence of H202 and iron II in a solar simulator. Following irradiation, the reaction mixture is taken up in methanol and derivatised at 90° C. with TBA. Chromogene, the MDA-TBA complex, representative of the equimolar production of MDA is assayed by fluorimetry (excitation at 525 nm, emission at 549 nm). The results are expressed in fluorescence units, as a function of a MDA-TBA control range then expressed as concentration of the MDA-TBA complex. Then, the percentage of the starting MDA/linoleic acid (LA) ratio is determined. Then the percentage of protection of linoleic acid is determined. The product assay is expressed as weight/weight ratio, in other words in weight percentage with respect to the total quantity of linoleic acid. The maximal MDA level is determined by the condition UV+H202+iron II (F). The percentage of protection of linoleic acid represents: the % ratio of MDA under maximal stress conditions untreated over the % of MDA under stress conditions treated by the product.

Setting [3] is: reference products of the interpretation scale.

T1 sequence (C7FF04 1-392 limits assumed): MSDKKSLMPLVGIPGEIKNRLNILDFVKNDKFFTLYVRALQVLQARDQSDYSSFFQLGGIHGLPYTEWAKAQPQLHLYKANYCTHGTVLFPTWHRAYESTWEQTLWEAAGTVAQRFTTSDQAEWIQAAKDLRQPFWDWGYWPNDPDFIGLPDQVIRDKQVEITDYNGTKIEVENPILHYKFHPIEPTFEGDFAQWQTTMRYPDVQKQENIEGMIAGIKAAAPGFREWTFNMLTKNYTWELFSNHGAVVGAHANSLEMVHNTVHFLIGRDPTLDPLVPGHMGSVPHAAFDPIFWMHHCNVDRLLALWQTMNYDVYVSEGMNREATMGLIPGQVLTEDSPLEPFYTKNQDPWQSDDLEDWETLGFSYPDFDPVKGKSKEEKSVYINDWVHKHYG

As for `O=C(O)CCCC[C@@H]1CCSS1` (racemic) [Lipoic acid, reference compound], in test [1] (setting [3]), the “Activity (antioxidant, interpretation scale)” value is “None” and the “μg of sample for 1 μg of Trolox (scale for interpreting the results, reference products)” value is reported as “NEGATIVE”.
As for `OC[C@H]1O[C@@H](Oc2ccc(O)cc2)[C@H](O)[C@@H](O)[C@@H]1O` [Arbutin, reference compound], the inhibition at 88 µM against mushroom tyrosinase (at 88 μM, MPMO function) came out at 57%.
As to `Cc1cc(C(C)(C)C)c(O)c(C(C)(C)C)c1` [BHT, reference compound], the “Activity (antioxidant, interpretation scale)” value in test [1] (setting [3]) is on record as “Good (3.01 to 50)”.
In the case of `N[C@@H](CS)C(=O)O` [Cysteine, reference compound], the “Activity (antioxidant, interpretation scale)” value in test [1] (setting [3]) is recorded as “Medium (50.1 to 1000)”.
In the case of `CCCCOc1ccc(Sc2ccc(O)cc2O)c(O)c1` [Example 6, 4-(4-butoxy-2-hydroxyphenylthio)benzene-1,3-diol], on mushroom tyrosinase, the “Tyrosinase depigmenting activity result” value is “+ + +”. Further, in the test with B16-F10 cells (B16-F10, 72 h), the inhibition at 20 µM stood at 30%. Moreover, the “μg of sample for 1 μg of Trolox” value in test [1] is reported as 14.9 μg of sample for 1 μg of Trolox.
Regarding `CCCCCCCCCCCC(=O)Oc1cc(O)ccc1Sc1ccc(O)cc1O` [Example 14, 2-(2,4-dihydroxyphenylthio)-5-hydroxyphenyl dodecanoate], the “Tyrosinase depigmenting activity result” value on mushroom tyrosinase is on record as “+ + +”. For the same compound, the inhibition at 48 µM in the test with B16-F10 cells (B16-F10, 48 μM, α-MSH stimulated, 72 hours, negative value = inhibition) was 50%. Also, in test [1], the “μg of sample for 1 μg of Trolox” value is given as 4.8 μg of sample for 1 μg of Trolox.
Regarding `CCCCCCCC(=O)Oc1ccc(Sc2ccc(O)cc2O)c(O)c1` [Example 16, 4-(2,4-dihydroxyphenylthio)-3-hydroxyphenyl octanoate], at mushroom tyrosinase, the “Tyrosinase depigmenting activity result” value is “+ + +”. Besides, the “μg of sample for 1 μg of Trolox” value in test [1] is given as 33.2 μg of sample for 1 μg of Trolox. The “% Protection Linoleic acid under UV/Fenton” value (shortened to “% Protection Linoleic acid”) in test [2] is listed as 91%.
On to `COc1ccc(/C=C/C(=O)Oc2cc(O)ccc2Sc2ccc(O)cc2O)cc1` [Example 22, (E)-2-(2,4-dihydroxyphenylthio)-5-hydroxyphenyl 3-(4-metoxyphenyl)acrylate], for which the “Tyrosinase depigmenting activity result” value on mushroom tyrosinase is reported as “+ + +”. Further, the “μg of sample for 1 μg of Trolox” value in test [1] is reported as 2.5 μg of sample for 1 μg of Trolox. For the same compound, the “% Protection Linoleic acid” value in test [2] was 97%.
The corresponding values for `COc1ccc(/C=C/C(=O)Oc2cc(O)ccc2Sc2ccc(O)cc2O)cc1OC` [Example 23, (E)-2-(2,4-dihydroxyphenylthio)-5-hydroxyphenyl 3-(3,4-dimethoxyphenyl)acrylate] are “+ + +”, 2.8 μg of sample for 1 μg of Trolox and 96%.
As to `CCCCCCCCCCCC(=O)Oc1cc(O)ccc1[S+]([O-])c1ccc(O)cc1O` (stereo not drawn) [Example 26, 2-(2,4-dihydroxyphenylsulphinyl)-5-hydroxyphenyl dodecanoate], the “μg of sample for 1 μg of Trolox” value in test [1] is listed as 69 μg of sample for 1 μg of Trolox. Besides, the “% Protection Linoleic acid” value in test [2] is recorded as 80%.
Regarding `CCCCC/C=C\C/C=C\CCCCCCCC(=O)Oc1cc(O)ccc1[S+]([O-])c1ccc(O)cc1O` (stereo not drawn) [Example 27, (9Z,12Z)-2-(2,4-dihydroxyphenylsulphinyl)-5-hydroxyphenyl octadeca-9,12-dienoate], the “μg of sample for 1 μg of Trolox” value in test [1] is listed as 40 μg of sample for 1 μg of Trolox. In test [2], the “% Protection Linoleic acid” value was found to be 78%.
Consider `CCCCCCCCCCOc1cc(O)ccc1[S+]([O-])c1ccc(O)cc1O` (stereo not drawn) [Example 28, 4-(2-(decyloxy)-4-hydroxyphenylsulphinyl)benzene-1,3-diol], for which, in test [1], the “μg of sample for 1 μg of Trolox” value is reported as 28 μg of sample for 1 μg of Trolox. In addition, the “% Protection Linoleic acid” value in test [2] amounted to 94%.
With `O=S(=O)(c1ccc(O)cc1O)c1ccc(O)cc1O` [Example 29, 4,4′-sulphonyldibenzene-1,3-diol], the entries for the “μg of sample for 1 μg of Trolox” value in test [1] and in test [1] (listed as resorcinol sulphone) were 301 μg of sample for 1 μg of Trolox and 301 μg of sample for 1 μg of Trolo, respectively. Moreover, the “% Protection Linoleic acid” value in test [2] stood at 25%.
Consider `CCCCCCCCCCOc1cc(O)ccc1S(=O)(=O)c1ccc(O)cc1O` [Example 30, 4-(2-(decyloxy)-4-hydroxyphenylsulphonyl)benzene-1,3-diol], for which, in test [1], the “μg of sample for 1 μg of Trolox” value is 147 μg of sample for 1 μg of Trolox. Also, the “% Protection Linoleic acid” value in test [2] came out at 34%.
As for `Oc1ccc(O)cc1` [Hydroquinone, reference compound], the IC50 at mushroom tyrosinase fell in the range of 3 to 4 µM.
Regarding `N[C@@H](CCC(=O)N[C@@H](CS)C(=O)NCC(=O)O)C(=O)O` [Reduced glutathion, reference compound], at mushroom tyrosinase (at 25 μM, PPO function), the “% inhibition (PPO)” value came to 55%. Further, on mushroom tyrosinase, the IC50 was 1 to 2 µM.
Consider `O=c1c(O)c(-c2ccc(O)c(O)c2)oc2cc(O)cc(O)c12` [quercetin, reference compound], for which the “protection of linoleic acid” value is on record as “around 50%” in test [2] (positive control at 0.1% (weight/weight of linoleic acid)) and “almost total protection” in test [2] (positive control at 1% (weight/weight of linoleic acid)).
